Experimental data published in ChEMBL document CHEMBL5303573, “Mapping human microbiome drug metabolism by gut bacteria and their genes” (Nature, 2019).

Columns and labels:
[1] = The drug is tested on Eubacterium hallii strain: DSM3353 for biotransformation. The drug concentrations were measured before and after a 12-h incubation by liquid-chromatography-coupled mass spectrometry (LC–MS); conditions: anaerobutyricum hallii, 2 µM
[2] = parabacteroides johnsonii, 12 h, 2 µM
Description: The drug is tested on Parabacteroides johnsonii strain: DSM18315 for biotransformation. The drug concentrations were measured before and after a 12-h incubation by liquid-chromatography-coupled mass spectrometry (LC–MS)

[3] = The drug is tested on Escherichia coli strain: BW25113 for biotransformation. The drug concentrations were measured before and after a 12-h incubation by liquid-chromatography-coupled mass spectrometry (LC–MS); conditions: 2 µM
[4] = The drug is tested on Bacteroides fragilis strain: ATCC43859 for biotransformation. The drug concentrations were measured before and after a 12-h incubation by liquid-chromatography-coupled mass spectrometry (LC–MS); conditions: 2 µM
[5] = enterocloster bolteae, 12 h, 2 µM
Description: The drug is tested on Clostridium bolteae strain: ATCCBAA-613 for biotransformation. The drug concentrations were measured before and after a 12-h incubation by liquid-chromatography-coupled mass spectrometry (LC–MS)

[6] = The drug is tested on Enterococcus faecalis strain: V583 for biotransformation. The drug concentrations were measured before and after a 12-h incubation by liquid-chromatography-coupled mass spectrometry (LC–MS); conditions: 2 µM
[7] = The drug is tested on Providencia stuartii strain: ATCC25827 for biotransformation. The drug concentrations were measured before and after a 12-h incubation by liquid-chromatography-coupled mass spectrometry (LC–MS); conditions: 2 µM
[8] = bacteroides thetaiotaomicron, 12 h, 2 µM
Description: The drug is tested on Bacteroides thetaiotaomicron strain: 3731 for biotransformation. The drug concentrations were measured before and after a 12-h incubation by liquid-chromatography-coupled mass spectrometry (LC–MS)

[9] = The drug is tested on Bacteroides coprophilus strain: DSM18228 for biotransformation. The drug concentrations were measured before and after a 12-h incubation by liquid-chromatography-coupled mass spectrometry (LC–MS); conditions: 2 µM
[10] = The drug is tested on Ruminococcus lactaris strain: ATCC29176 for biotransformation. The drug concentrations were measured before and after a 12-h incubation by liquid-chromatography-coupled mass spectrometry (LC–MS); conditions: 2 µM
[11] = The drug is tested on Parabacteroides merdae strain: ATCC43184 for biotransformation. The drug concentrations were measured before and after a 12-h incubation by liquid-chromatography-coupled mass spectrometry (LC–MS); conditions: 2 µM
[12] = The drug is tested on Clostridium ramosum strain: DSM1402 for biotransformation. The drug concentrations were measured before and after a 12-h incubation by liquid-chromatography-coupled mass spectrometry (LC–MS); conditions: thomasclavelia ramosa, 2 µM
[13] = bacteroides fragilis, 12 h, 2 µM
Description: The drug is tested on Bacteroides fragilis strain: NCTC 9343 for biotransformation. The drug concentrations were measured before and after a 12-h incubation by liquid-chromatography-coupled mass spectrometry (LC–MS)

[14] = The drug is tested on Alistipes indistinctus strain: DSM22520 for biotransformation. The drug concentrations were measured before and after a 12-h incubation by liquid-chromatography-coupled mass spectrometry (LC–MS); conditions: 2 µM
[15] = The drug is tested on Collinsella aerofaciens strain: ATCC25986 for biotransformation. The drug concentrations were measured before and after a 12-h incubation by liquid-chromatography-coupled mass spectrometry (LC–MS); conditions: 2 µM
[16] = The drug is tested on Clostridium scindens strain: ATCC35704 for biotransformation. The drug concentrations were measured before and after a 12-h incubation by liquid-chromatography-coupled mass spectrometry (LC–MS); conditions: 2 µM
[17] = The drug is tested on Eubacterium ventriosum strain: ATCC27560 for biotransformation. The drug concentrations were measured before and after a 12-h incubation by liquid-chromatography-coupled mass spectrometry (LC–MS); type: ADME; design: dose 2 uM, timepoint 0 vs 12 hours; conditions: 2 µM
[18] = The drug is tested on Clostridium sporogenes strain: ATCC15579 for biotransformation. The drug concentrations were measured before and after a 12-h incubation by liquid-chromatography-coupled mass spectrometry (LC–MS); conditions: 2 µM
[19] = The drug is tested on Ruminococcus gnavus strain: ATCC29149 for biotransformation. The drug concentrations were measured before and after a 12-h incubation by liquid-chromatography-coupled mass spectrometry (LC–MS); conditions: mediterraneibacter gnavus, 2 µM
[20] = bifidobacterium adolescentis, 12 h, 2 µM
Description: The drug is tested on Bifidobacterium adolescentis strain: ATCC 15703 for biotransformation. The drug concentrations were measured before and after a 12-h incubation by liquid-chromatography-coupled mass spectrometry (LC–MS)

SMILES | Bacterial Biotransformation [1] | Bacterial Biotransformation [2] | Bacterial Biotransformation [3] | Bacterial Biotransformation [4] | Bacterial Biotransformation [5] | Bacterial Biotransformation [6] | Bacterial Biotransformation [7] | Bacterial Biotransformation [8] | Bacterial Biotransformation [9] | Bacterial Biotransformation [10] | Bacterial Biotransformation [11] | Bacterial Biotransformation [12] | Bacterial Biotransformation [13] | Bacterial Biotransformation [14] | Bacterial Biotransformation [15] | Bacterial Biotransformation [16] | Bacterial Biotransformation [17] | Bacterial Biotransformation [18] | Bacterial Biotransformation [19] | Bacterial Biotransformation [20]
O=C1[C@H](CC[C@H](O)c2ccc(F)cc2)[C@@H](c2ccc(O)cc2)N1c1ccc(F)cc1 [EZETIMIBE] | Compound NOT metabolized | Compound NOT metabolized | Compound NOT metabolized | Compound NOT metabolized | Compound NOT metabolized | Compound NOT metabolized | Compound NOT metabolized | Compound NOT metabolized | Compound NOT metabolized | Compound NOT metabolized | Compound NOT metabolized | Compound NOT metabolized | Compound NOT metabolized | Compound NOT metabolized | Compound NOT metabolized | Compound NOT metabolized | Compound metabolized | Compound metabolized | Compound NOT metabolized | –
CCCN1C[C@H](CSC)C[C@@H]2c3cccc4[nH]cc(c34)C[C@H]21.CS(=O)(=O)O [PERGOLIDE MESYLATE] | Compound NOT metabolized | Compound NOT metabolized | Compound NOT metabolized | Compound NOT metabolized | Compound NOT metabolized | Compound NOT metabolized | Compound NOT metabolized | Compound NOT metabolized | Compound NOT metabolized | – | Compound NOT metabolized | Compound NOT metabolized | Compound NOT metabolized | Compound NOT metabolized | Compound NOT metabolized | Compound NOT metabolized | Compound NOT metabolized | Compound NOT metabolized | Compound NOT metabolized | Compound NOT metabolized
C[C@H]1O[C@@H](O[C@H]2[C@@H](O)C[C@H](O[C@H]3[C@@H](O)C[C@H](O[C@H]4CC[C@@]5(C)[C@H](CC[C@@H]6[C@@H]5C[C@@H](O)[C@]5(C)[C@@H](C7=CC(=O)OC7)CC[C@]65O)C4)O[C@@H]3C)O[C@@H]2C)C[C@H](O)[C@@H]1O [DIGOXIN] | Compound NOT metabolized | Compound metabolized | Compound NOT metabolized | Compound metabolized | Compound NOT metabolized | Compound NOT metabolized | Compound NOT metabolized | Compound NOT metabolized | Compound metabolized | Compound NOT metabolized | Compound metabolized | Compound NOT metabolized | Compound NOT metabolized | Compound NOT metabolized | Compound NOT metabolized | Compound NOT metabolized | Compound NOT metabolized | Compound NOT metabolized | Compound NOT metabolized | Compound NOT metabolized
C#C[C@]1(O)CC[C@H]2[C@@H]3CCC4=CC(=O)CC[C@@H]4[C@H]3CC[C@@]21CC [LEVONORGESTREL] | Compound NOT metabolized | Compound metabolized | Compound NOT metabolized | Compound metabolized | Compound NOT metabolized | – | Compound NOT metabolized | Compound metabolized | Compound NOT metabolized | – | Compound metabolized | Compound NOT metabolized | Compound metabolized | Compound NOT metabolized | Compound NOT metabolized | Compound NOT metabolized | Compound NOT metabolized | Compound metabolized | Compound metabolized | Compound NOT metabolized
Cc1ccc(S(=O)(=O)NC(=O)NN2CC3CCCC3C2)cc1 (configuration not stated) [GLICLAZIDE] | Compound NOT metabolized | Compound NOT metabolized | Compound NOT metabolized | Compound metabolized | Compound NOT metabolized | Compound NOT metabolized | Compound NOT metabolized | Compound metabolized | Compound NOT metabolized | Compound NOT metabolized | Compound NOT metabolized | Compound NOT metabolized | Compound NOT metabolized | Compound NOT metabolized | Compound NOT metabolized | Compound NOT metabolized | Compound NOT metabolized | Compound NOT metabolized | Compound NOT metabolized | Compound NOT metabolized
CO[C@]12C[C@@H](COC(=O)c3cncc(Br)c3)CN(C)[C@@H]1Cc1cn(C)c3cccc2c13 [NICERGOLINE] | Compound NOT metabolized | Compound NOT metabolized | Compound NOT metabolized | Compound NOT metabolized | – | Compound NOT metabolized | Compound NOT metabolized | Compound NOT metabolized | Compound NOT metabolized | Compound NOT metabolized | Compound NOT metabolized | Compound NOT metabolized | Compound NOT metabolized | Compound NOT metabolized | – | Compound NOT metabolized | Compound NOT metabolized | Compound NOT metabolized | Compound NOT metabolized | Compound NOT metabolized
COc1ccc2c(c1)c(CC(=O)O)c(C)n2C(=O)c1ccc(Cl)cc1 [INDOMETHACIN] | Compound NOT metabolized | Compound metabolized | Compound metabolized | Compound metabolized | Compound metabolized | Compound NOT metabolized | Compound NOT metabolized | Compound metabolized | Compound metabolized | – | Compound metabolized | Compound NOT metabolized | Compound metabolized | Compound metabolized | Compound NOT metabolized | Compound NOT metabolized | Compound metabolized | Compound NOT metabolized | Compound NOT metabolized | Compound NOT metabolized
O=C1NCC2(CCN(CCc3ccccc3)CC2)O1 [FENSPIRIDE] | Compound NOT metabolized | Compound metabolized | Compound NOT metabolized | Compound metabolized | Compound NOT metabolized | Compound NOT metabolized | Compound NOT metabolized | Compound metabolized | Compound metabolized | Compound NOT metabolized | – | Compound NOT metabolized | Compound metabolized | Compound NOT metabolized | Compound NOT metabolized | Compound NOT metabolized | Compound NOT metabolized | Compound NOT metabolized | Compound NOT metabolized | Compound NOT metabolized
